≈ marks a conversion by molar mass, not a printed value.
Experiments:
Format in all cases: cell-based
Coxsackie virus B6 = assay: Coxsackie virus activity assay (CPE in Vero cells); settings: Vero, read-out: COX-B6 IC50, Vero cells, about 100TCID50, CPE, Reed-Muench
PC12 cells [1] = assay: Neuroprotective activity assay, rotenone injury to PC12 cells (MTT); settings: for viability at 10 µM: Rattus norvegicus, PC-12, 48 h, 10 μM test compound, 4 μM rotenone, 48 h, Control 100.0 ± 8.9, Model 73.2 ± 7.8, read-out: rotenone (surviving PC12 cells, MTT 570 nm); for protective effect on rotenone injury to PC12 cells: statement in words
How it was run: (§1)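 Survival measured as MTT absorbance at 570 nm after 4 h dye uptake. Compounds (10 μM) were co-applied for 48 h to PC12 cells deprived of serum or exposed to 4 μM rotenone, following 24 h seeding on poly-lysine.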

HIV-1 III B virus = assay: Anti-HIV activity assay (P24 antigen in MT-4 cells); settings: for IC50: Human immunodeficiency virus 1, MT4, 96 h, MT-4 cells, HIV-1 III B 100TCID50, 96 h, P24 antigen, read-out: HIV IC50; for anti-HIV viral activity: statement in words
PC12 cells [2] = assay: Neuroprotective activity assay, serum-deprived injury to PC12 cells (MTT); settings: for viability at 10 µM: Rattus norvegicus, PC-12, 48 h, 10 μM test compound, 48 h, Control 100.0 ± 9.2, Model 69.3 ± 4.1, read-out: serum-deprived (surviving PC12 cells, MTT 570 nm); for protective effect on serum-deprived injury to PC12 cells: statement in words
How it was run: as §1

HCV = assay: Anti-hepatitis C virus (HCV) activity assay (HCV RNA in Huh7.5 cells); settings: for EC50: Hepatitis C virus, Huh7.5, 72 h, Huh7.5 cells, 72 h, HCV RNA by RT-PCR, Reed-Muench, read-out: HCV EC50; for anti-HCV viral activity: statement in words
Protocol: Inoculate Huh7.5 cells into 96-well plates to a density of 3×10^4 cells/cm^2, culture for 24h, infect the cells with 45 IU/cell HCV supernatant, meanwhile, add drug solutions or solvent control for treatment.

[3] = tested on: Influenza A virus (hanfang359/95); assay: Determination of anti-influenza virus activity (CPE in MDCK cells); settings: for IC50: Influenza A virus, MDCK, 36 h; for anti-influenza virus activities compared with the lead compound cajanine: statement in words

Row | Compound | IC50 (Coxsackie virus B6) [µg/mL] | viability at 10 µM (PC12 cells [1]) [%] | protective effect on rotenone injury to PC12 cells (PC12 cells [1]) | IC50 (HIV-1 III B virus) [µg/mL] | viability at 10 µM (PC12 cells [2]) [%] | protective effect on serum-deprived injury to PC12 cells (PC12 cells [2]) | EC50 (HCV) [µg/mL] | IC50 [3] [µg/mL] | anti-influenza virus activities compared with the lead compound cajanine [3] | anti-HIV viral activity (HIV-1 III B virus) | anti-HCV viral activity (HCV)
1 | COC(=O)c1c(/C=C/c2c(OC)cccc2OC)cc(OC)c(CC=C(C)C)c1O [Compound 8d, methyl 2-hydroxy-3-isopentenyl-4-methoxy-6-[(E)-2,6-dimethoxystyryl]-benzoate] | > 9.26 | 84.4 ± 3.6 | the strongest activities | 0.86 (≈ 2.08 µM) | 82 ± 3.2 | the strongest activities | 5.17 (≈ 12.5 µM) | > 6.17 |  |  | 
2 | CC/C=C/c1cc(OC)c(CC=C(C)C)c(O)c1C(=O)OC [Compound 8h, methyl 2-hydroxy-3-isopentenyl-4-methoxy-6-[(E)-buten-1-yl]-benzoate] | > 2.06 | 72.4 ± 4.3 |  | 2.66 (≈ 8.74 µM) | 35.4 ± 10.6 |  | 1.42 (≈ 4.67 µM) | 1.92 (≈ 6.31 µM) |  |  | 
3 | COC(=O)c1c(/C=C(\C)c2ccccc2)cc(OC)c(CC=C(C)C)c1O [Compound 8i, methyl 2-hydroxy-3-isopentenyl-4-methoxy-6-[(E)-2-phenylpropen-1-yl]-benzoate] | 6.89 (≈ 18.8 µM) | 69.4 ± 2.6 |  | 3.8 (≈ 10.4 µM) | 46.4 ± 16.6 |  | 3.47 (≈ 9.47 µM) | > 2.47 |  |  | 
4 | COC(=O)c1c(/C=C/CCc2ccccc2)cc(OC)c(CC=C(C)C)c1O [Compound 8l, methyl 2-hydroxy-3-isopentenyl-4-methoxy-6-[(E)-4′-phenylbuten-1′-yl]benzoate] | > 6.17 | 64.7 ± 1.8 |  | 5.17 (≈ 13.6 µM) | 51.1 ± 17 |  | 5.95 (≈ 15.6 µM) | 5.75 (≈ 15.1 µM) |  |  | 
5 | COC(=O)c1c(/C=C/c2ccccc2)cc(OC)c(C/C=C(\C)CCC=C(C)C)c1O [Compound 8o, methyl 2-hydroxy-3-(3′,7′-dimethyloctadien-2′,6′-yl)-4-methoxy-6-[(E)-styryl]benzoate] | 2.36 (≈ 5.61 µM) | 70.6 ± 6.3 |  | 2.96 (≈ 7.04 µM) | 69.3 ± 5.6 |  | 0.92 (≈ 2.19 µM) | 0.82 (≈ 1.95 µM) | significantly stronger than the lead compound cajanine |  | 
6 | COC(=O)c1c(/C=C/C2CCCCC2)cc(OC)c(CC=C(C)C)c1O [Compound 8p, methyl 2-hydroxy-3-isopentenyl-4-methoxy-6-[(E)-2-cyclohexyl-vinyl]benzoate] | > 2.06 | 84.6 ± 5.9 | the strongest activities | 21.1 (≈ 58.9 µM) | 82.3 ± 5.6 | the strongest activities | 11.4 (≈ 31.7 µM) | 10.3 (≈ 28.9 µM) |  |  | 
7 | COC(=O)c1c(/C=C/c2ccc(OC(C)=O)cc2)cc(OC)c(CC=C(C)C)c1O [Compound 8q, methyl 2-hydroxy-3-isopentenyl-4′-methoxy-6-[(E)-4-acetoxystyryl]benzoate] | 5.23 (≈ 12.7 µM) | 80.5 ± 6.5 | the strongest activities | 2.1 (≈ 5.12 µM) | 79.8 ± 5.8 | the strongest activities | 7.63 (≈ 18.6 µM) | 8.23 (≈ 20.1 µM) |  |  | 
8 | COC(=O)c1c(/C=C/c2ccncc2)cc(OC)c(CC=C(C)C)c1O [Compound 8r] | 6.43 (≈ 18.2 µM) | 69.8 ± 8.4 |  | 4.01 (≈ 11.3 µM) | 74.5 ± 5.7 |  | 3.14 (≈ 8.88 µM) | 4.65 (≈ 13.2 µM) |  |  | 
9 | COC(=O)/C(=C\c1cc(OC)c(CC=C(C)C)c(O)c1C(=O)OC)c1ccccc1 [Compound 8s] | 3.52 (≈ 8.58 µM) | 76.8 ± 5.4 |  | 0.52 (≈ 1.27 µM) | 79.8 ± 5.2 |  | 0.84 (≈ 2.05 µM) | 0.24 (≈ 0.585 µM) |  | stronger anti-HIV, HCV viral activities | stronger anti-HIV, HCV viral activities
10 | COC(=O)c1c(/C=C/c2cc(OC)cc(OC)n2)cc(OC)c(CC=C(C)C)c1O [Compound 8x, methyl 2-hydroxy-3-isopentenyl-4-methoxy-6-[(E)-2-(4,6-dimethoxypyrid-2-yl)ethenyl]benzoate] | 4.58 (≈ 11.1 µM) | 76.5 ± 1.8 |  | 0.79 (≈ 1.91 µM) | 79.8 ± 2.6 |  | 1.87 (≈ 4.52 µM) | 0.65 (≈ 1.57 µM) | significantly stronger than the lead compound cajanine |  | 
11 | COC(=O)c1c(/C=C/c2cccc(OC)n2)cc(OC)c(CC=C(C)C)c1O [Compound 8y, methyl 2-hydroxy-3-isopentenyl-4-methoxy-6-[(E)-2-(6-methoxy-pyrid-2-yl)ethenyl]benzoate] | 7.12 (≈ 18.6 µM) | 48.9 ± 6.5 |  | 6.8 (≈ 17.7 µM) | 49.8 ± 2.6 |  | 4.33 (≈ 11.3 µM) | 2.14 (≈ 5.58 µM) |  |  | 
12 | COc1cc(/C=C/c2ccccc2)c(C(=O)OCC(O)CO)c(O)c1CC=C(C)C (stereo not drawn) [Compound 9e, 2,3-dihydroxypropyl2-hydroxy-3-isopentenyl-4-methoxy-6-[(E)-styryl]benzoate] | 0.21 (≈ 0.509 µM) | 90.8 ± 4.3 | the strongest activities | 0.73 (≈ 1.77 µM) | 91.3 ± 2.4 | the strongest activities | 0.66 (≈ 1.6 µM) | 0.1 (≈ 0.242 µM) | significantly stronger than the lead compound cajanine | stronger anti-HIV, HCV viral activities | stronger anti-HIV, HCV viral activities
13 | COc1cc(/C=C/c2ccccc2)c(C(=O)NC2CCNCC2)c(O)c1CC=C(C)C [Compound 9f] | 0.24 (≈ 0.571 µM) | 68.5 ± 4.9 |  | 0.14 (≈ 0.333 µM) | 58.9 ± 2.6 |  | 6.09 (≈ 14.5 µM) | 0.31 (≈ 0.737 µM) |  |  | 
14 | COc1cc(/C=C/c2ccccc2)c(C(=O)Nc2ccccc2)c(O)c1CC=C(C)C [Compound 9g, N-phenyl-2-hydroxy-3-isopentenyl-4-methoxy-6-[(E)-styryl]benzamide] | 1.59 (≈ 3.85 µM) | 87.4 ± 1.9 | the strongest activities | 0.79 (≈ 1.91 µM) | 89.4 ± 2.3 | the strongest activities | 5.1 (≈ 12.3 µM) | 0.84 (≈ 2.03 µM) |  |  | 
15 | COc1cc(/C=C/c2ccccc2)c(C(=O)Nc2ccc(Cl)cc2)c(O)c1CC=C(C)C [Compound 9h, N-p-chlorophenyl2-hydroxy-3-isopentenyl-4-methoxy-6-[(E)-styryl]benzamide] | 2.98 (≈ 6.65 µM) | 79.8 ± 2.1 |  | 3.38 (≈ 7.55 µM) | 84.5 ± 5.1 |  | 1.33 (≈ 2.97 µM) | 0.47 (≈ 1.05 µM) | significantly stronger than the lead compound cajanine |  | 
16 | COc1cc(/C=C/c2ccccc2)cc(O)c1CC=C(C)C [Compound 10, Cajanine A] | 0.69 (≈ 2.34 µM) | 69.9 ± 5.8 |  | 0.21 (≈ 0.713 µM) | 34.7 ± 9.8 |  | 0.56 (≈ 1.9 µM) | 0.27 (≈ 0.917 µM) | significantly stronger than the lead compound cajanine | stronger anti-HIV, HCV viral activities | stronger anti-HIV, HCV viral activities

— patent publication US9359298B2, “Cajanine structure analogous compound, preparation method and use” (INSTITUTE OF MEDICINAL BIOTECHNOLOGY, CHINESE ACADEMY OF …, priority 2011, dated 2016)
